Key:
Conditions in all cases: incubation time: 72 h
[1] = tested on: CAL-51; experiment: normalised viability (% of control), CellTiter-Blue; higher = more viable cells (100 = DMSO, 0 = benzethonium chloride kill control)
Procedure, shortened: (§1)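 After 72 h on compound-loaded 384-well plates, breast cancer cell lines received 2.5 µl CellTiter-Blue reagent for 2 h at 37 °C. Fluorescence at 560/590 nm was scaled per plate so that vehicle was 100 and a positive kill control was 0. The value stands for normalised viability at a single listed concentration of the series.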

[2] = tested on: CAL-85-1; experiment: as above
Procedure, shortened: as §1

[3] = tested on: HCC1599; experiment: as above
Procedure, shortened: as §1

[4] = tested on: BT-549; experiment: as above
Procedure, shortened: as §1

[5] = tested on: MDA-MB-436; experiment: as above
Procedure, shortened: as §1

[6] = tested on: HDQ-P1; experiment: as above
Procedure, shortened: as §1

[7] = tested on: CAL-148; experiment: as above
Procedure, shortened: as §1

[8] = tested on: DU-4475; experiment: as above
Procedure, shortened: as §1

[9] = tested on: BT-474; experiment: as above
Procedure, shortened: as §1

[10] = tested on: Hs578T; experiment: as above
Procedure, shortened: as §1

[11] = tested on: MDA-MB-231; experiment: as above
Procedure, shortened: as §1

[12] = tested on: SK-BR-3; experiment: as above
Procedure, shortened: as §1

[13] = tested on: HCC1143; experiment: as above
Procedure, shortened: as §1

[14] = tested on: MFM-223; experiment: as above
Procedure, shortened: as §1

[15] = tested on: MDA-MB-453; experiment: as above
Procedure, shortened: as §1

[16] = tested on: HCC1937; experiment: as above
Procedure, shortened: as §1

[17] = tested on: MDA-MB-468; experiment: as above
Procedure, shortened: as §1

[18] = tested on: CAL-120; experiment: as above
Procedure, shortened: as §1

[19] = tested on: CAL-51; experiment: normalised response (% of control), CellTiter-Glo; higher = more viable cells (100 = DMSO, 0 = benzethonium chloride kill control)
Procedure, shortened: (§2)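 In 384-well plates holding compound at 5 concentrations in 10-fold steps over a 10,000-fold range specific to each compound, breast cancer cell lines were seeded as 20 µl suspension and incubated 72 h. CellTox Green fluorescence was measured at 485/520 nm, after which CellTiter-Glo luminescence was measured following 10 min at room temperature. Plate signals were normalised to 0.1 % DMSO (100) and a positive kill control (0), and each value is the normalised signal at a single concentration.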

[20] = tested on: CAL-85-1; experiment: as above
Procedure, shortened: as §2

[21] = tested on: HCC1599; experiment: as above
Procedure, shortened: as §2

[22] = tested on: BT-549; experiment: as above
Procedure, shortened: as §2

[23] = tested on: MDA-MB-436; experiment: as above
Procedure, shortened: as §2

[24] = tested on: HDQ-P1; experiment: as above
Procedure, shortened: as §2

[25] = tested on: CAL-148; experiment: as above
Procedure, shortened: as §2

[26] = tested on: DU-4475; experiment: as above
Procedure, shortened: as §2

[27] = tested on: BT-474; experiment: as above
Procedure, shortened: as §2

[28] = tested on: Hs578T; experiment: as above
Procedure, shortened: as §2

[29] = tested on: MDA-MB-231; experiment: as above
Procedure, shortened: as §2

[30] = tested on: MCF-10A; experiment: as above
Procedure, shortened: as §2

[31] = tested on: SK-BR-3; experiment: as above
Procedure, shortened: as §2

[32] = tested on: HCC1143; experiment: as above
Procedure, shortened: as §2

[33] = tested on: MFM-223; experiment: as above
Procedure, shortened: as §2

[34] = tested on: MDA-MB-453; experiment: as above
Procedure, shortened: as §2

[35] = tested on: HCC1937; experiment: as above
Procedure, shortened: as §2

[36] = tested on: MDA-MB-468; experiment: as above
Procedure, shortened: as §2

[37] = tested on: CAL-120; experiment: as above
Procedure, shortened: as §2

Row | SMILES | normalised viability [1] [%] | normalised viability [2] [%] | normalised viability [3] [%] | normalised viability [4] [%] | normalised viability [5] [%] | normalised viability [6] [%] | normalised viability [7] [%] | normalised viability [8] [%] | normalised viability [9] [%] | normalised viability [10] [%] | normalised viability [11] [%] | normalised viability [12] [%] | normalised viability [13] [%] | normalised viability [14] [%] | normalised viability [15] [%] | normalised viability [16] [%] | normalised viability [17] [%] | normalised viability [18] [%] | normalised response [19] [%] | normalised response [20] [%] | normalised response [21] [%] | normalised response [22] [%] | normalised response [23] [%] | normalised response [24] [%] | normalised response [25] [%] | normalised response [26] [%] | normalised response [27] [%] | normalised response [28] [%] | normalised response [29] [%] | normalised response [30] [%] | normalised response [31] [%] | normalised response [32] [%] | normalised response [33] [%] | normalised response [34] [%] | normalised response [35] [%] | normalised response [36] [%] | normalised response [37] [%]
1 | Cn1cnc2c(F)c(Nc3ccc(Br)cc3F)c(C(=O)NOCCO)cc21 [MEK-162] (0.1 nM) | 109 | 91.2 | 108 | 105 | 104 | 102 | 111 | 106 | 122 | 125 | 116 | 102 | 112 | 92.1 | 100 | 105 | 104 | 83.7 | 93.5 | 100 | 114 | 98.5 | 97.9 | 99.2 | 96.2 | 98.6 | 104 | 94.3 | 101 | 105 | 103 | 94.3 | 101 | 115 | 94.4 | 108 | 103
2 | CCS(=O)(=O)c1cccc(-c2cc(C(=O)NC3CCN(C)CC3)c(C)c3[nH]c4ncc(C)cc4c23)c1 [TAK-901] (0.1 nM) | 90.9 | 83.7 | 87 | 112 | 108 | 111 | 102 | 85.1 | 76.6 | 109 | 104 | 92 | 94.9 | 96.7 | 96.1 | 105 | 95.9 | 87.2 | 122 | 103 | 108 | 106 | 93.8 | 98.9 | 101 | 106 | 101 | 111 | 101 | 109 | 113 | 108 | 106 | 117 | 91.8 | 100 | 97.4
3 | CS(=O)(=O)OCCCCOS(C)(=O)=O [Busulfan] (10 nM) | 88.3 | 105 | 105 | 92.2 | 105 | 106 | 131 | 104 | 82.1 | 92 | 112 | 97 | 100 | 88.7 | 117 | 78.8 | 102 | 112 | 87.1 | 104 | 84.3 | 103 | 89.5 | 95.6 | 96 | 106 | 102 | 101 | 99.2 | 104 | 111 | 99.3 | 102 | 108 | 95.5 | 97.3 | 92.4

Reference: the supplement of paper PMC4862054
